How the values were obtained:
[1] = tested on: bleomycin-induced lung fibrosis; assay: Bleomycin-induced lung fibrosis model, H&E, Masson's trichrome, Ashcroft score; assay type: in vivo, C57BL/6J mice
Experimental: Animal procedures were approved by the Institutional Animal Care and Use Committee (IACUC) of Massachusetts Eye and Ear, and performed in accordance with the Association for Research in Vision and Ophthalmology Statement for the Use of Animals in Ophthalmic and Vision Research. C57BL/6J male and female mice of 6-8 weeks-old were purchased from Jackson Laboratories. For all procedures, mice were anesthetized by intraperitoneal injection of Ketamine/xylazine mixture (100/50 mg/Kg).
(§1) Bleomycin sulphate (Sigma-Aldrich) was dissolved in sterile 0.9% saline and administered as a single dose of 0.05 units in a total volume of 50 μl in saline solution per animal intratracheally (IT). Control animals received 0.05 mL saline alone. A preventative regimen was chosen and each animal received either Ro24-7429 drug 70 mg/kg or vehicle every other day 7 days before the induction of the model and continued until the end of the experiment for 1 week or 2 weeks. All animals received intratracheal instillations of either bleomycin on day 0 as previously described (52-55). A separate experiment was performed with similar drug-vehicle treatments and IT saline instillation for controls. The surgeon performing IT instillations was masked to the identity of the treatment groups.
Lung samples were fixed in 10% neutral buffered formalin (Sigma, HT501128-4L), for 24 hours for histological analysis. Fixed lungs were paraffin embedded and sectioned (5 μm-thick) and stained with hematoxylin and eosin (H&E) to examine gross morphology and Masson's trichrome stain to visualize collagen deposition and examined by microscopy. Lung fibrosis was measured using quantitative histology using the Ashcroft method of analysis. All measurements were performed by two independent graders in a blinded fashion. Images were acquired with the Nikon Eclipse E800 microscope with an Olympus DP70 Camera. Adjacent 2× images of the lung were stitched together using Adobe Photoshop CS6.
Bleomycin triggers a strong inflammatory response in the lung at day 7 characterized by infiltration with neutrophils and macrophages, vascular leakage, and up-regulation of cytokines, chemokines and other inflammatory mediators. By day 14, bleomycin treated mice are expected to develop significant lung fibrosis including disruption of the normal lung architecture, thickening of the alveolar septa, and excessive extracellular matrix and collagen deposition around the alveolar structures. We examined the effects of escalating doses of Ro24-7429 (17.5, 35 and 70 mg/kg per day) on bleomycin-induced lung fibrosis by H&E and Masson's trichrome staining in mice at day 14 (FIG. 1A-B, FIG. 5A-B). These doses were estimated to be equivalent to those used in the Ro24-7429 human trial, 75, 150 or 300 mg per day, respectively (28).

[2] = tested on: RUNX1 and fibrosis markers in lung tissue; assay: Expression of RUNX1 and fibrosis markers in bleomycin-injured lung (Western blot, qRT-PCR, immunostaining); assay type: in vivo, C57BL/6J mice
Experimental: as §1
Paraffin embedded sections were processed for immunofluorescence using the following antibodies: anti-RUNX1 (1:100; LS-B13948; Lifespan Biosciences, Seattle, WA), anti-human a-SMA antibody (1:200; NB500-170; Novus Biologicals, Ontario, Canada), anti-Iba1 antibody (1:100; ab5076; Abcam, Cambridge, United Kingdom), anti-Ly6g antibody (1:100; ab25377; Abcam, Cambridge, United Kingdom), and Isolectin GS-IB4 Alexa Fluoro 594 Conjugate (1:250; 121413; Invitrogen, Carlsbad, CA). For heat-induced antigen retrieval the slides were boiled in 10 mM sodium citrate buffer (pH 6.0) and then maintained at a sub-boiling temperature (95-100° C.) for 20 minutes and subsequently cooled on the bench top for 30 minutes. Slides were washed with distilled water and permeabilized with 0.5% Triton X-100 in PBS for 5 minutes and blocked (10% goat serum in PBS) for 1 hour at RT. The primary antibody was prepared in antibody dilution buffer (5% goat serum) and samples were incubated overnight with the antibody solution at 4° C. Sections were washed with PBS and incubated with goat anti-rabbit Alexa Fluor 594 secondary antibody (1:500; A-11012; Invitrogen, Carlsbad, CA) for 2 hours at room temperature. Slides were mounted and visualized using Prolong Gold Antifade Reagent with DAPI (P36935, Invitrogen). Images were obtained using an EVOS FL automated stage live cell imaging system (Life Technologies, Cambridge, MA).
(§2) Protein concentration was determined by Pierce Bicinchonic acid (BCA) protein assay kit (ThermoFisher; 23227) according to the manufacturer's instructions. 20 μg of total cell lysates were prepared in 4 μL 1M 1,4-dithiothreitol (DTT; Sigma Aldrich) and 10 μL Laemmli buffer (Boston Bioproducts) to a final volume of 40 μL and denatured 5 min at 90° C. Samples were separated electrophoretically for 1 h at 70 V using 4-20% pre-cast gradient gels (Mini-PROTEAN TGX, Bio-Rad) and SDS-Tris-Glycine buffer (Bio-rad). Proteins were transferred to 0.45 μm nitrocellulose membranes for 1 h at 70 V in ice cold […] Tris-Glycine buffer (Bio-rad). Membranes were blocked for 1 h with Odyssey Blocking Buffer (LI-COR Biosciences). Then incubated with primary antibodies for 3 hours RT or overnight at 4 degrees Celsius and then washed 3× with TBS-T and incubated with secondary antibodies IRDye 800CW donkey anti-mouse for 1 hour and washed 3× with TBS-T.
Mice were treated as described previously before euthanasia. Lung samples were collected for qRT-PCR analysis and tissues lysed by homogenization. RNA was extracted using RNeasy Mini Kits (QIAGEN), as per the manufacturer's instructions for tissue samples. Transcription into complementary DNA and analysis were performed as stated previously. Primers for selected genes (Table 1) were purchased from Integrated DNA Technologies (Coralville, IA, USA).

[3] = tested on: bleomycin-induced inflammation; assay: Bleomycin-induced lung inflammation, infiltration of neutrophils and macrophages; assay type: in vivo, C57BL/6J mice; settings: 1-week and 2-week time points
Experimental: as §1
Paraffin embedded sections were processed for immunofluorescence using the following antibodies: anti-RUNX1 (1:100; LS-B13948; Lifespan Biosciences, Seattle, WA), anti-human a-SMA antibody (1:200; NB500-170; Novus Biologicals, Ontario, Canada), anti-Iba1 antibody (1:100; ab5076; Abcam, Cambridge, United Kingdom), anti-Ly6g antibody (1:100; ab25377; Abcam, Cambridge, United Kingdom), and Isolectin GS-IB4 Alexa Fluoro 594 Conjugate (1:250; 121413; Invitrogen, Carlsbad, CA). […]
We evaluated the potential effect of Ro24-7429 on bleomycin-induced inflammation 1 week and 2 weeks after lung injury (FIGS. 1I-J and 2).

[4] = tested on: A549 cells; assay: CyQUANT Direct Cell Proliferation Assay, A549; assay type: cell-based, human; settings: for percent live cells compared to vehicle treated: 48 hours, Ro5-3335 150 μM, Ro24-7429 50 μM-200 μM, Pirfenidone 500 μg/ml, Nintedanib 5 μM
Experimental: (§3) Human type II alveolar epithelial cells (A549) were a generous gift from Dr. Lagares (Mass General Hospital). Cells were maintained in low glucose-DMEM containing 10% FBS, 2 mM L-glutamine, 100 U/ml penicillin and 100 μg/ml streptomycin at 37° C. in a humidified 5% C02 atmosphere. Confluent cultures of cells were pretreated with Ro24-7429 for 24 hours followed by stimulation with 5 ng/ml of TGF-β1.
(§4) We tested the effect of RUNX1 inhibition on the proliferation of a human alveolar basal epithelial cell line (A549), primary human-derived pulmonary alveolar epithelial cells (HPAEpi), and in human-derived primary culture lung fibroblasts (HLF). For specific analyses we used escalating doses of Ro24-7429 (50-200 μM), Ro5-3335 (150 μM), pirfenidone (500 μg/ml) and nintedanib (5 μM), the latter two are currently approved drugs for IPF.

[5] = tested on: human lung fibroblasts (HLF); assay: CyQUANT Direct Cell Proliferation Assay, HLF; assay type: cell-based; settings: 72 hours
Source text: as §4, with “We conducted mechanistic studies in cell culture to examine the cellular and molecular mechanisms underlying the robust effects of RUNX1 inhibition in the protection against bleomycin-induced lung injury. We” for “We”

[6] = tested on: A549 cells; assay: Lactate dehydrogenase (LDH) cell death assay, A549; assay type: cell-based; settings: for cell death: 500μ g/ml
Experimental: Human type II alveolar epithelial cells (A549) were a generous gift from Dr. Lagares (Mass General Hospital). Cells were maintained in low glucose-DMEM containing 10% FBS, 2 mM L-glutamine, 100 U/ml penicillin and 100 μg/ml streptomycin at 37° C. in a humidified 5% C02 atmosphere.
We tested the effect of RUNX1 inhibition on the proliferation of a human alveolar basal epithelial cell line (A549), primary human-derived pulmonary alveolar epithelial cells (HPAEpi), and in human-derived primary culture lung fibroblasts (HLF).

[7] = tested on: human lung fibroblasts (HLF); assay: Lactate dehydrogenase (LDH) cell death assay, HLF; assay type: cell-based; settings: Ro24-7429 50-200 μM, Ro5-3335 150 μM
Source text: as §4, with “We conducted mechanistic studies in cell culture to examine the cellular and molecular mechanisms underlying the robust effects of RUNX1 inhibition in the protection against bleomycin-induced lung injury. We” for “We”

[8] = tested on: N-Cadherin in A549 cells; assay: TGF-β1-induced N-Cadherin upregulation, Western blot, A549; assay type: cell-based, human; settings: A549, 150 μM and 200 μM, 24 hours prior to TGF-β1 exposure
Experimental: as §3
as §2, with “Then incubated with primary antibodies for 3 hours RT or overnight at 4 degrees Celsius and then washed 3× with TBS-T and incubated with secondary antibodies IRDye 800CW donkey anti-mouse for 1 hour and washed 3× with TBS-T.” left out
(§5) We evaluated the effect of RUNX1 inhibition on the expression of fibrosis markers induced by TGF-β1, a critical mediator of PF (30), in A549 cells at 24, 48 and 72 hours. […]

[9] = tested on: N-Cadherin in HPAEpi cells; assay: TGF-β1-induced N-Cadherin upregulation, Western blot, HPAEpi; assay type: cell-based, human; settings: 150 μM and 200 μM, 24 hours prior to TGF-β1 exposure
Experimental: (§6) Human Pulmonary Alveolar Epithelial cells (HPAEpiCs) were purchased from ScienCell (Carlsbad, CA, USA) and cultured in alveolar epithelial cell medium (ScienCell) supplemented with 2% fetal bovine serum (FBS), epithelial cell growth supplement, 100 U/mL penicillin G, and 100 µg/mL streptomycin. The cells were cultured and maintained in 6-well plates for experimental purposes.
as §2, with “Then incubated with primary antibodies for 3 hours RT or overnight at 4 degrees Celsius and then washed 3× with TBS-T and incubated with secondary antibodies IRDye 800CW donkey anti-mouse for 1 hour and washed 3× with TBS-T.” left out
as §5

[10] = tested on: RUNX1 mRNA in HMEC-Ls; assay: TNF-α-induced RUNX1 mRNA, qRT-PCR, HMEC-Ls; assay type: cell-based, human; settings: 75 μM, TNF-α 5 ng/ml, 48 hours
[11] = tested on: FURIN mRNA in HMEC-Ls; assay: FURIN mRNA, qPCR, TNF-α-stimulated HMEC-Ls; assay type: cell-based, human; settings: TNF-α 5 ng/ml
[12] = tested on: ACE2 protein in HPAEpi cells; assay: TGF-β1 and TNF-α induced ACE2 protein, Western blot, HPAEpi cells; assay type: cell-based, human; settings: pretreatment
Experimental: as §6
as §2, with “Then incubated with primary antibodies for 3 hours RT or overnight at 4 degrees Celsius and then washed 3× with TBS-T and incubated with secondary antibodies IRDye 800CW donkey anti-mouse for 1 hour and washed 3× with TBS-T.” left out
(§7) Additionally, we studied the effect of RUNX1 inhibition on the expression of ACE2 expression in TGF-β1 and TNF-α stimulated HPAEpi cells. […] FURIN protein levels were also observed to go down by 70% in the Ro24-7429 treated mice as evaluated by Western blot (FIGS. 4E-F).

[13] = tested on: ACE2 and FURIN in lung tissue; assay: ACE2 staining and FURIN protein in bleomycin-injured lung; assay type: in vivo, C57BL/6J mice
Experimental: as §1, with “groups. […]” for “groups.”
Protein concentration was determined by Pierce Bicinchonic acid (BCA) protein assay kit (ThermoFisher; 23227) according to the manufacturer's instructions. […]
as §7

[14] = tested on: human immunodeficiency virus (HIV); settings: patients infected with HIV; cited from earlier work
[15] = bleomycin mice, lung tissue, day 14

In the case of CNC1=Nc2ccc(Cl)cc2C(c2ccc[nH]2)=NC1 [Ro24-7429, 3H-1,4-Benzodiazepin-2-amine, 7-chloro-N-methyl-5-(1H-pyrrol-2-yl)-], the “effect on lung phenotype / progression of fibrosis” value ([1]; 17.5 mg/kg, day 14) is reported as “slight effect”, the “effect on the progression of fibrosis” value ([1]; 35 mg/kg, day 14) is reported as “moderate but variable effect” and the Ashcroft fibrosis score ([1]; 70 mg/kg, day 14) is reported as “significant reduction”. The “lung structures after bleomycin instillation” value ([1]; 70 mg/kg, day 14, H&E and Masson's trichrome) was “robust preservation of lung structures”, the α-SMA immunostaining localization ([2]; 70 mg/kg, bleomycin mice) was “localized only to vessels” and the “expression of E-Cadherin, Western blot” value [2, 15] was “preserved”. The “expression of RUNX1, Western blot” value [2, 15] was “reduced”, the “expression of fibronectin, Western blot” value [2, 15] was “reduced” and the “RUNX1 upregulation, immunofluorescence and qRT-PCR” value ([2]; bleomycin-injured mice, day 14) was “significantly attenuated”. The “upregulation of fibrosis markers triggered by bleomycin” value ([2]; compared to vehicle treated mice, day 14) was “blunted”, the “infiltration of inflammatory cells, neutrophils and macrophages” value [3] was “reduced infiltration” and the “percent live cells compared to vehicle treated” value [4] was “significant reduction”. The reduction in proliferation ([4]; A549, 48 hours, 50 μM) was 62%, the reduction in proliferation ([4]; A549, 48 hours, 200 μM) was 68% and the reduction in proliferation ([4]; A549, 72 hours, 200 μM) was 82%. The reduction in proliferation ([5]; 50 μM) was 30%, the reduction in proliferation ([5]; 200 μM) was 55% and the “cell death by LDH analysis” value ([6]; A549, Ro24-7429 50-200 μM, Ro5-3335 150 μM) was “Very low levels of cell death”. The “cell death by LDH analysis” value [7] was “Very low levels of cell death”, the “TGF-β1-induced N-Cadherin upregulation” value [8] was “effectively prevented” and the “TGF-β1-induced N-Cadherin upregulation” value [9] was “effectively prevented”. The “reduction of TNF-α-induced upregulation of RUNX1 mRNA” value [10] was 50%, the “reduction of FURIN mRNA expression” value [11] was 70% and the “TGF-β1 and TNFα induced ACE2 protein levels” value [12] was “significantly reduced”. For the same compound, the “decrease of FURIN protein levels” value ([13]; bleomycin mice lungs, Western blot) was 70%, the “ACE2 staining in the lung” value ([13]; bleomycin mouse model, 2-week time point, immunofluorescence) was “markedly reduced” and the “antiviral activity in clinical trials” value [14] was “no detectable antiviral activity”. For the same compound, the “safety profile in clinical trials” value [14] was “acceptable safety profile”.

In the case of Cc1ccc(=O)n(-c2ccccc2)c1 [pirfenidone], the “percent live cells compared to vehicle treated” value [4] is reported as “significant reduction”, the cell death ([6]; A549, 48 hours) is reported as 8% and the cell death ([6]; A549, 72 hours) is reported as 11%.
